Test results reported in patent US10011568B2, “Cyclohexyl pyridine derivative” (priority 2014, dated 2018).

How the values were obtained:
human NK1 receptor = human NK1 receptor (Homo sapiens (Human), UniProt P25103); experiment: Inhibitory effect on human NK1 receptor (substance P-induced increase in intracellular calcium concentration); type: cell-based; details: substance P 1 μM, compound 0.1 μM; read-out: SPRR (%), Substance P-Response Remaining (intracellular calcium concentration)
Method: Inhibitory Effect on Human NK1 Receptor
(1) Preparation of Human NK1 Receptor-Expressing Cells
Human NK1 receptor-expressing cells were prepared by the same methods as those described in 2-3 of Test Example 1.
(2) Study on Inhibitory Effect on Increase in Intracellular Calcium Concentration
The human NK1 receptor-expressing cells were washed with 300 μL/well of a washing solution (20 mM HEPES/Hank's Balanced Salt Solution (HBSS) pH 7.3). A fluorescent calcium indicator (Fluo-4 Direct Calcium Assay Kit, Life Technologies, containing 0.42 mM probenecid and 0.1% bovine serum albumin, prepared according to the protocol of the product) was added to the wells at 150 μL/well, and the plate was incubated at 37° C. for 30 minutes in an incubator. Then. DMSO solutions of a test compound, which were prepared at an 80-time higher concentration using 100% dimethyl sulfoxide (DMSO), were added to the wells at 2.5 μL/well (final concentrations of 0.1, 1 and 10 μM), and the solutions were mixed. Then, the plate was further incubated at […] for 30 minutes in an incubator. After 30 minutes, the intracellular calcium concentrations were measured immediately.
The intracellular calcium concentrations were each measured as a fluorescent signal using FDSS (registered trademark) 7000 (Hamamatsu Photonics). A substance P (Peptide Institute. Inc.) solution which was prepared at 0.4 μM or 4 μM using an assay buffer (20 mM HEPES/Hank's Balanced Salt Solution (HBSS) pH 7.3, containing 0.1% bovine serum albumin) was added automatically to each well at 50 μL/well (final concentration of 0.1 or 1 μM) 10 seconds after starting reading, and the fluorescent signal was measured up to 120 seconds.
The intracellular calcium concentration (%) of the cells to which a test compound was added was calculated by the equation below, where the fluorescent signal of the group to which the vehicle (DMSO) was added was regarded as 100%, and the fluorescent signal before the addition of substance P was regarded as 0%. Intracellular calcium concentration (%)—(Fluorescent signal of test compound addition group)/(Fluorescent signal of vehicle addition group)×100
The intracellular calcium concentration (%) calculated was regarded as the remaining agonist activity of substance P (Substance P-Response Remaining: SPRR). In the table, Ex. No. means the Example number. SPRR (%) is the value obtained when the concentration of substance P was 1 μM and the concentration of the compound was 0.1 μM.

NK1 receptor = NK1 receptor (Meriones unguiculatus (Mongolian jird) (Gerbillus unguiculatus), UniProt Q5DUB1); experiment: Effect on foot-tapping induced by NK1 receptor agonist GR73632; type: in vivo; details: male gerbil, 0.1 mg/kg iv, GR73632 after four hours
Chain of NK1 receptor (Q5DUB1 whole entry): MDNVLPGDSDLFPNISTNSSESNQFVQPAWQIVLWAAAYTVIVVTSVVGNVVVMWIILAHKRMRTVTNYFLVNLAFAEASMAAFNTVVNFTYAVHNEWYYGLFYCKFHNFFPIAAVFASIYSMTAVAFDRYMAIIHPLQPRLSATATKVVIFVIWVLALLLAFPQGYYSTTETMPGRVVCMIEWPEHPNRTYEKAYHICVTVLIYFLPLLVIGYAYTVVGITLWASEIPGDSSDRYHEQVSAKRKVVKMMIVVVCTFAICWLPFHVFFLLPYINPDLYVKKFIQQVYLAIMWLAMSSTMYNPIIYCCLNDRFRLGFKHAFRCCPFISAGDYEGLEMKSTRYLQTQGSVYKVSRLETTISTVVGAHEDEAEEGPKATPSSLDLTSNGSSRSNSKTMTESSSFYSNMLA
Method: (1) Effect on Foot-Tapping
The test compound solution was prepared by dissolving the test compound in a vehicle (a mixture of 50% N,N-dimethylacetamide (Wako Pure Chemical Industries), 30% propylene glycol (Wako Pure Chemical Industries). 4% 2-hydroxypropyl-β-cyclodextrin (Wako Pure Chemical Industries) and 16% distilled water).
(§1) A male gerbil (Japan SLC) was anesthetized with isoflurane, and 0.1 mg/kg of a test compound was administered from the jugular vein. After four hours. GR73632 (5 pmol/5 μl saline), which is an NK1 receptor agonist, was administered into the cerebral ventricle at the part 1 mm lateral to and 4.5 mm below the bregma in the head, under anesthesia with isoflurane. After the administration, the gerbil was moved to an observation cage, and the foot-tapping period during 30 minutes after the recovery of the righting reflex was measured. The foot-tapping inhibition rate (%) of each test compound was calculated by the following equation. Foot-tapping inhibition rate (%)−{1−(Fool-tapping period when test compound was administered)/(Foot-tapping period when solvent was administered)}×100 (2) Measurement of Drug Concentrations
(§2) In the table, Ex. No. means the Example number. Inhibition (%) is the loot-tapping inhibition rate, and Cone. (nM) is the drug concentration in the brain.

[1] = Measurement of drug concentrations in the brain after foot-tapping; type: in vivo; details: male gerbil, 0.1 mg/kg iv, after foot-tapping was finished
Method: as §1
After foot-tapping was finished, laparotomy was performed immediately under anesthesia with ether, and a blood sample was taken from the abdominal vena cava. At the same lime, the brain was extracted. Through a quantitative analysis using liquid chromatography-mass spectrometry (LC/MS), the concentrations of the test compound in the plasma and the brain were measured.
as §2

hERG channel = hERG channel (Homo sapiens (Human), UniProt Q12809); experiment: Evaluation of hERG current (whole-cell patch clamp); type: cell-based; details: 10 μM, application for 10 minutes, HEK293 cells, n = 3, average ± standard error
Chain of hERG channel (Q12809 whole entry): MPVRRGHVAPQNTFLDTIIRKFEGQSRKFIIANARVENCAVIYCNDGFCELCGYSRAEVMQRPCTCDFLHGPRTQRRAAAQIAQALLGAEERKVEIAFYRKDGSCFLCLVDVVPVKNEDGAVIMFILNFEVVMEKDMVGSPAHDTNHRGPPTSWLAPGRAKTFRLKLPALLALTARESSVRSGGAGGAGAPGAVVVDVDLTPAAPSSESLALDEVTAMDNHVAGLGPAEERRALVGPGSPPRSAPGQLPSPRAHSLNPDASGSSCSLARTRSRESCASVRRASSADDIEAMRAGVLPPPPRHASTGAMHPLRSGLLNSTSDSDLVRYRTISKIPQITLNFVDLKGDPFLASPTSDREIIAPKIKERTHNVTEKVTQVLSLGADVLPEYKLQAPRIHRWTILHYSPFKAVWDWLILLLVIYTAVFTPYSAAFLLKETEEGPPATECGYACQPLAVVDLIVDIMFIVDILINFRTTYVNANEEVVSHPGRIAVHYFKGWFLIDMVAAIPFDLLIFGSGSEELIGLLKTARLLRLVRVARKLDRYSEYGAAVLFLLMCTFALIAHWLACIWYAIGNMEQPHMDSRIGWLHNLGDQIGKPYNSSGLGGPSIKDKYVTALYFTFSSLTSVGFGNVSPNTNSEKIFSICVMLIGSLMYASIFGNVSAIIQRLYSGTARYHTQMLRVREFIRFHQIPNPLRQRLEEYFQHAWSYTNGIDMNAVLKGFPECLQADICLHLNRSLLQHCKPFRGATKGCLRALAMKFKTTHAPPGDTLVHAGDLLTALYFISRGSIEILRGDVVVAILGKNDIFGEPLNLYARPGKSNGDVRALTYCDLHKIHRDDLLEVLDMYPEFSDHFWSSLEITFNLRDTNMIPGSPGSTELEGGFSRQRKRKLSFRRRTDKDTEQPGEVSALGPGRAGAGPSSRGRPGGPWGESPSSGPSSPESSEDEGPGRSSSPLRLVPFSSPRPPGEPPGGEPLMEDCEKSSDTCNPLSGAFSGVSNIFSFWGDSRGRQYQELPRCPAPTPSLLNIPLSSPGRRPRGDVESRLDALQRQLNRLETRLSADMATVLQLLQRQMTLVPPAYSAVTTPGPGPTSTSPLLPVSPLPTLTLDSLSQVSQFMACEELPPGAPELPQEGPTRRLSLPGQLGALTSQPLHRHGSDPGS
Method: Evaluation of hERG Current
A dimethyl sulfoxide (DMSO) solution of the test compound with a concentration 1000 times higher than the evaluation concentration (10 μM) was prepared, and a solution with a final application concentration was prepared by diluting the solution. The hERG current was measured by a whole-cell method using a patch clamp system, where a cover glass on which hERG channel-expressing human embryonic kidney (HEK) 293 cells were seeded was placed on a perfusion bath and a perfusion solution was caused to flow. The change in the hERG channel-derived current caused by a pulse protocol (holding potential of −80 mV, depolarization pulse of +20 mV for 1.9 seconds, repolarization pulse of −50 mV for 2 seconds, stimulated at intervals of 15 seconds) of data acquisition/analysis software, pCLAMP9 (Axon instruments. Inc.) was measured. The measurement conditions were a flow rate of about 1.5 mL/min and a temperature of about 33° C. Two wave forms immediately before applying the test compound and two wave forms immediately after the application for 10 minutes were analyzed, and the statistical analysis was performed. The value before the application of the test compound was regarded as 100%, and the change rate based on the value was determined.
In the table, Ex. No. means the Example number, and the change rate is the average±the standard error.

Chain of human NK1 receptor (P25103 whole entry): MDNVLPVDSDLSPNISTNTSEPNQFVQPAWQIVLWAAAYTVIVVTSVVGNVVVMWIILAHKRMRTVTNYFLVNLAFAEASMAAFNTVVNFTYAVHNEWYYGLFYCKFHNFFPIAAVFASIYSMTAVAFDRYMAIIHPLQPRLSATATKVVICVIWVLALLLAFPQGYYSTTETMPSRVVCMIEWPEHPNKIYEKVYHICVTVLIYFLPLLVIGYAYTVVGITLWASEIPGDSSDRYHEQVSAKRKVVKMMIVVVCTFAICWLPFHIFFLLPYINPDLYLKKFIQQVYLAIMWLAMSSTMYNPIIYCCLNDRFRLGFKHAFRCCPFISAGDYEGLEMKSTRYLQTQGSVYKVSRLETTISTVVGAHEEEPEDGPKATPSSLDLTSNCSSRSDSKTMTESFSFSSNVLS

remaining activity at 0.1 µM (human NK1 receptor) [%] | Inhibition (%), foot-tapping inhibition rate (NK1 receptor) [%] | Conc. (nM), drug concentration in the brain [1] [nM] | SMILES | hERG current change rate % (value before application = 100%) (hERG channel) [%]
20 | 98 | 24 | Cc1cc(F)ccc1-c1cc(C2CCC(C(=O)O)CC2)ncc1N(C)C(=O)C(C)(C)c1cc(C(F)(F)F)cc(C(F)(F)F)c1 (stereo not shown) [Example 1, 4-[5-{[2-(3,5-Bistrifluoromethylphenyl)-2-methylpropionyl]methylamino}-4-(4-fluoro-2-methylphenyl)pyridin-2-yl]cyclohexanecarboxylic Acid] | 
36 | 100 | 48 | Cc1cc(F)ccc1-c1cc(C2CCCC(CC(=O)O)C2)ncc1N(C)C(=O)C(C)(C)c1cc(C(F)(F)F)cc(C(F)(F)F)c1 (stereo not shown) [Example 3, {3-[5-{[2-(3,5-Bistrifluoromethylphenyl)-2-methylpropionyl]methylamino}-4-(4-fluoro-2-methylphenyl)pyridin-2-yl]cyclohexyl}acetic Acid] | 
57 | 77 | 35 | Cc1cc(F)ccc1-c1cc(C2(C)CCCC(CC(=O)O)C2)ncc1N(C)C(=O)C(C)(C)c1cc(C(F)(F)F)cc(C(F)(F)F)c1 (stereo not shown) [Example 4, {3-[5-{[2-(3,5-Bistrifluoromethylphenyl)-2-methylpropionyl]methylamino}-4-(4-fluoro-2-methylphenyl)pyridin-2-yl]-3-methylcyclohexyl}acetic Acid] | 
9.4 | 90 | 24 | Cc1cc(F)ccc1-c1cc(C2CCC3(CC2)CC3C(=O)O)ncc1N(C)C(=O)C(C)(C)c1cc(C(F)(F)F)cc(C(F)(F)F)c1 (stereo not shown) [Example 7, 6-[5-{[2-(3,5-Bistrifluoromethylphenyl)-2-methylpropionyl]methylamino}-4-(4-fluoro-2-methylphenyl)pyridin-2-yl]spiro[2.5]octane-1-carboxylic Acid] | 
31 | 100 | 59 | Cc1cc(F)ccc1-c1cc(C2CCC(CC(=O)O)CC2)nc(C#N)c1N(C)C(=O)C(C)(C)c1cc(C(F)(F)F)cc(C(F)(F)F)c1 (stereo not shown) [Example 8, {4-[5-{[2-(3,5-Bistrifluoromethylphenyl)-2-methylpropionyl]methylamino}-6-cyano-4-(4-fluoro-2-methylphenyl)pyridin-2-yl]cyclohexyl}acetic Acid] | 
42 | 75 | 47 | Cc1ccccc1-c1cc(C2CCC(CC(=O)O)CC2)ncc1N(C)C(=O)C(C)(C)c1cc(C(F)(F)F)cc(C(F)(F)F)c1 (stereo not shown) [Example 9, {4-[5-{[2-(3,5-Bistrifluoromethylphenyl)-2-methylpropionyl]methylamino}-4-ortho-tolylpyridine-yl]-cyclohexyl}acetic Acid] | 
8.6 | 97 | 42 | Cc1cc(F)ccc1-c1cc(C2CCC(C(C)C(=O)O)CC2)ncc1N(C)C(=O)C(C)(C)c1cc(C(F)(F)F)cc(C(F)(F)F)c1 (stereo not shown) [Example 10, 2-{4-[5-{[2-(3,5-Bistrifluoromethylphenyl)-2-methylpropionyl]methylamino}-4-(4-fluoro-2-methylphenyl)pyridin-2-yl]cyclohexyl}propionic Acid] | 
5.4 | 95 | 72 | Cc1cc(F)ccc1-c1cc([C@H]2CC[C@H](C(C)(C)C(=O)O)CC2)ncc1N(C)C(=O)C(C)(C)c1cc(C(F)(F)F)cc(C(F)(F)F)c1 [Example 11, trans-2-{4-[5-{[2-(3,5-Bistrifluoromethylphenyl)-2-methylpropionyl]methylamino}-4-(4-fluoro-2-methylphenyl)pyridin-2-yl]cyclohexyl}-2-methylpropionic Acid] | 
22 | 99 | 40 | Cc1cc(F)ccc1-c1cc([C@H]2CC[C@@H](CC(=O)O)CC2)ncc1N(C)C(=O)C(C)(C)c1cc(C(F)(F)F)cc(C(F)(F)F)c1 [Example 14, cis-{4-[5-{[2-(3,5-bistrifluoromethylphenyl)-2-methylpropionyl]methylamino}-4-(4-fluoro-2-methylphenyl)pyridin-2-yl]cyclohexyl}acetic acid] | 80.3 ± 3.9
37 | 93 | 64 | Cc1ccccc1-c1cc(C2CCC(CC(=O)O)CC2)nc(C#N)c1N(C)C(=O)C(C)(C)c1cc(C(F)(F)F)cc(C(F)(F)F)c1 (stereo not shown) [Example 16, [4-(5-{[2-(3,5-Bistrifluoromethylphenyl)-2-methylpropionyl]methylamino}-6-cyano-4-ortho-tolylpyridin-2-yl)cyclohexyl]acetic Acid] | 
2.8 | 100 | 92 | Cc1cc(F)ccc1-c1cc([C@H]2CC[C@H](CC(=O)O)CC2)nc(C#N)c1N(C)C(=O)C(C)(C)c1cc(C(F)(F)F)cc(C(F)(F)F)c1 [Example 20, trans-{4-[5-{[2-(3,5-Bistrifluoromethylphenyl)-2-methylpropionyl]methylamino}-6-cyano--4-(4-fluoro-2-methylphenyl)-pyridin-2-yl]cyclohexyl}acetic acid] | 
36 | 100 | 92 | Cc1cc(F)ccc1-c1cc([C@H]2CC[C@@H](CC(=O)O)CC2)nc(C#N)c1N(C)C(=O)C(C)(C)c1cc(C(F)(F)F)cc(C(F)(F)F)c1 [Example 21, cis-{4-[5-{[2-(3,5-bistrifluoromethylphenyl)-2-methylpropionyl]methylamino}-6-cyano-4-(4-fluoro-2-methylphenyl)pyridin-2-yl]cyclohexyl}acetic acid] | 
